Test results as given in patent publication US9834571B2, “Compounds for inhibiting cell proliferation in EGFR-driven cancers” (ARIAD Pharmaceuticals, Inc., priority 2012, dated 2017).
Where two headings read alike, the source gives them in different places.

Key:
[1] = molecular target: human EGFR (native sequence) (Homo sapiens, UniProt P00533); assay: Kinase inhibitory activity against human EGFR (native sequence); format: biochemical; conditions: 10 μM ATP, read-out: IC50 for kinase inhibition, EGFR
Chain of human EGFR (native sequence) (P00533 25-1210): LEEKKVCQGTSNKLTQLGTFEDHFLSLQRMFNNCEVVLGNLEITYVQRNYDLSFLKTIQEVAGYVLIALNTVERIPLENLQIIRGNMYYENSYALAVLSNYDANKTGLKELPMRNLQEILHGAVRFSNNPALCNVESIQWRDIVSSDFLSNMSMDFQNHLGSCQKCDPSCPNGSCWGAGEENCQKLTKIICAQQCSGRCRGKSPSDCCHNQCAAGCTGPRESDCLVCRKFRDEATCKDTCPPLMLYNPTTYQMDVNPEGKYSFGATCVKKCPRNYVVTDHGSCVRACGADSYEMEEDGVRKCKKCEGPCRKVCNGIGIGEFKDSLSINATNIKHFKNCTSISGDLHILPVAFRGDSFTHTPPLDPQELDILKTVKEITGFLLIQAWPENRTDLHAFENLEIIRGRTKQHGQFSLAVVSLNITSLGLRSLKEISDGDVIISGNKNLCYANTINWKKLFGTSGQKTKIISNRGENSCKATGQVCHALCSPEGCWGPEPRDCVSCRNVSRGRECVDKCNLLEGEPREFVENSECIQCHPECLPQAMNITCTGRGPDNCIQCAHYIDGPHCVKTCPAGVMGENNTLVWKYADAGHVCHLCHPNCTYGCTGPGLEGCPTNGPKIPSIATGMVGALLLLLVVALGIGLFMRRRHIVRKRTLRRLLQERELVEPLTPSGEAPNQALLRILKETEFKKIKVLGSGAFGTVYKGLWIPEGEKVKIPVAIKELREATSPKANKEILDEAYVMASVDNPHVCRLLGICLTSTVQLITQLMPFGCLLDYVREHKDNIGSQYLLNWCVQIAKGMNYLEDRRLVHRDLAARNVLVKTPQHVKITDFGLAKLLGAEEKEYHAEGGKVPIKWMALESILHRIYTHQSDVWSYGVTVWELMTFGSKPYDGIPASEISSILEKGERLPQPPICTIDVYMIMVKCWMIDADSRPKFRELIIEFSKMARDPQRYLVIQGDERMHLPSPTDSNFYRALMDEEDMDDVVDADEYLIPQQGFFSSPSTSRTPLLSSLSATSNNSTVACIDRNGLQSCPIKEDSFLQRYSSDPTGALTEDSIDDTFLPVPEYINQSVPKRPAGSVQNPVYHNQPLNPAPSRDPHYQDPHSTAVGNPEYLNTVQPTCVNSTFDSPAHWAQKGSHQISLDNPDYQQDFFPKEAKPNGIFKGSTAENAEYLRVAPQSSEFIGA
Method in brief: (§1)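 Testing covers a ten-concentration range beginning at 3 μM, performed once per concentration at an ATP level of 10 μM.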

EGFR L858R = EGFR L858R (Homo sapiens, UniProt P00533, L858R); assay: Kinase inhibitory activity against EGFR bearing the L858R mutation; format: biochemical; conditions: 10 μM ATP, read-out: IC50 for kinase inhibition, EGFR L858R
Method in brief: as §1

EGFR L858R/T790M = EGFR L858R/T790M (Homo sapiens, UniProt P00533, L858R/T790M); assay: Kinase inhibitory activity against EGFR bearing the L858R/T790M double mutation; format: biochemical; conditions: 10 μM ATP, read-out: IC50 for kinase inhibition, EGFR L858R T790M
Chain of EGFR L858R/T790M (P00533 25-1210 T790M/L858R): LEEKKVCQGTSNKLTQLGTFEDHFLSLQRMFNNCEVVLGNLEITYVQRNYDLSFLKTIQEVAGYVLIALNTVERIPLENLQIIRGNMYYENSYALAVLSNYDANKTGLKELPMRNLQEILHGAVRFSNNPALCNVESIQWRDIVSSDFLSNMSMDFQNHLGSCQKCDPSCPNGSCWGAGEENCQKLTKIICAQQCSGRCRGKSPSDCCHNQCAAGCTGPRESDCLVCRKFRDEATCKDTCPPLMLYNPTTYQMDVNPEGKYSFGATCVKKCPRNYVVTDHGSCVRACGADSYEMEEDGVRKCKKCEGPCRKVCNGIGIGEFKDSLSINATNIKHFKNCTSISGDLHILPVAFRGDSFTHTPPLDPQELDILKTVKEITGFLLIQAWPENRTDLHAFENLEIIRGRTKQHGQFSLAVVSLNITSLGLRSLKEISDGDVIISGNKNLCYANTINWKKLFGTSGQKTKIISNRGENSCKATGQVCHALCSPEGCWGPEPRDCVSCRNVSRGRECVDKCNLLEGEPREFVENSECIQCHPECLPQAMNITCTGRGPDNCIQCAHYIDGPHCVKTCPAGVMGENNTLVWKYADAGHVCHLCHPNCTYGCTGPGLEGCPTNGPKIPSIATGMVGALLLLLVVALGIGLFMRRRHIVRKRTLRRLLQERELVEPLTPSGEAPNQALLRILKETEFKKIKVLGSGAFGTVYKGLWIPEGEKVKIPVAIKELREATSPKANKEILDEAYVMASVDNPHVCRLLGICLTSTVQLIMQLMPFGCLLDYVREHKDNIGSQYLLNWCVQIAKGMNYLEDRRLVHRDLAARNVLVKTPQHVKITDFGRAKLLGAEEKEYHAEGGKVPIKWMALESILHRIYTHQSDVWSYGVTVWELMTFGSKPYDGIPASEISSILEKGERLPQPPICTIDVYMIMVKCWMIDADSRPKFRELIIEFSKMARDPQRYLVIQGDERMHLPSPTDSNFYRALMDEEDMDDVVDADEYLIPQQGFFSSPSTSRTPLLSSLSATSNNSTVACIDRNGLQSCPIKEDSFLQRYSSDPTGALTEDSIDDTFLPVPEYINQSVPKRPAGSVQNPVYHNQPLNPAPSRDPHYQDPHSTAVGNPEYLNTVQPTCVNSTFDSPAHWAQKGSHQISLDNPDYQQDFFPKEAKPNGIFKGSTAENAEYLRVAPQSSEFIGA
Method in brief: as §1

[2] = molecular target: T1, BaF3 cells expressing the target EGFR mutations (Homo sapiens, UniProt P00533, T790M, cells depend on it, form not given); assay: Antiproliferative activity (MTT) against BaF3 cells expressing the target EGFR mutations; format: cell-based; conditions: BAF3 EGFR DEL T790M PURO POOL cells, read-out: IC50, BAF3 EGFR DEL T790M PURO POOL
T1 construct: IC50, BAF3 EGFR DEL T790M PURO POOL; other: BAF3 EGFR DEL T790M PURO POOL cells, MTT; other: BAF3 EGFR DEL T790M PURO POOL cells; MTT
T1 sequence (P00533 with tags, fused parts or gaps DEL746-750/T790M, form open): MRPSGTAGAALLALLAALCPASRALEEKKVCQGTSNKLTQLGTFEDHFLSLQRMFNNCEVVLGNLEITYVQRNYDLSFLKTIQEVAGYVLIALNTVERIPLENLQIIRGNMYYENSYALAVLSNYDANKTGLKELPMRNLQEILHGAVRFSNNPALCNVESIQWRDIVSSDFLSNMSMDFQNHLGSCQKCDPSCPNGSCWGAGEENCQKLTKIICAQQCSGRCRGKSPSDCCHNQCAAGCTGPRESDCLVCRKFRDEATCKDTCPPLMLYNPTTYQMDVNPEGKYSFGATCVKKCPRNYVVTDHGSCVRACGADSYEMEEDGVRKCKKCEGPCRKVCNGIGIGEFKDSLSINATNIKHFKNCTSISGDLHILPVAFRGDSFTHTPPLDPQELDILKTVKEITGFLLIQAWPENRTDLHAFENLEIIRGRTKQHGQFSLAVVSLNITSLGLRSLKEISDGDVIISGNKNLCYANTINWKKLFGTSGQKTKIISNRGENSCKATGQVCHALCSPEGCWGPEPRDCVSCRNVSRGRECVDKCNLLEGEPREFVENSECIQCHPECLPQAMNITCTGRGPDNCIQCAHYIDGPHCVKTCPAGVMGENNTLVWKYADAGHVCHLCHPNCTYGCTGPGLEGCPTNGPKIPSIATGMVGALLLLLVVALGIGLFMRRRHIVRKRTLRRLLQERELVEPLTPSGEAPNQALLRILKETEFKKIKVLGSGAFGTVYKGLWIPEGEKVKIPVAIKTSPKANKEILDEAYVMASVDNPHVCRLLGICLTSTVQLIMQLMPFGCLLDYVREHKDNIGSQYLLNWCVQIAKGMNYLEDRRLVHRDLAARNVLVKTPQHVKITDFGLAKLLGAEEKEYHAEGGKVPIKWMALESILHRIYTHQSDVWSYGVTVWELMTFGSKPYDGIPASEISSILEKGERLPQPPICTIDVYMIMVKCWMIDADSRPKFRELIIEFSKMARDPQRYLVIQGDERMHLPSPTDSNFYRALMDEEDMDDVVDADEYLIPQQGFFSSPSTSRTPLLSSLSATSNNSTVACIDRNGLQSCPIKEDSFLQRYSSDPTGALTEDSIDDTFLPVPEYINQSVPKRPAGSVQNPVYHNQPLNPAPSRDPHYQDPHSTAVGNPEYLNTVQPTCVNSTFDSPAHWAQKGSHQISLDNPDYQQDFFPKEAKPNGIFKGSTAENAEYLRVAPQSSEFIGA
Method in brief: (§2)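 Compounds were tested on BaF3 cells bearing target EGFR mutations and on control BaF3 cells with wildtype EGFR; viability was then determined by MTT.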

[3] = molecular target: T2, BaF3 cells expressing the target EGFR mutations (Homo sapiens, UniProt P00533, T790M/L858R, cells depend on it); assay: as above; format: cell-based; conditions: BAF3 EGFR L858R-T790M PURO POOL cells, read-out: IC50, BAF3 EGFR L858R-T790M PURO POOL
T2 construct: IC50, BAF3 EGFR L858R-T790M PURO POOL; other: BAF3 EGFR L858R-T790M PURO POOL cells, MTT; IC50, BAF3 EGFR L858R-T790M PURO POOL; other: BAF3 EGFR L858R-T790M PURO POOL cells; MTT
T2 sequence (P00533 whole entry T790M/L858R): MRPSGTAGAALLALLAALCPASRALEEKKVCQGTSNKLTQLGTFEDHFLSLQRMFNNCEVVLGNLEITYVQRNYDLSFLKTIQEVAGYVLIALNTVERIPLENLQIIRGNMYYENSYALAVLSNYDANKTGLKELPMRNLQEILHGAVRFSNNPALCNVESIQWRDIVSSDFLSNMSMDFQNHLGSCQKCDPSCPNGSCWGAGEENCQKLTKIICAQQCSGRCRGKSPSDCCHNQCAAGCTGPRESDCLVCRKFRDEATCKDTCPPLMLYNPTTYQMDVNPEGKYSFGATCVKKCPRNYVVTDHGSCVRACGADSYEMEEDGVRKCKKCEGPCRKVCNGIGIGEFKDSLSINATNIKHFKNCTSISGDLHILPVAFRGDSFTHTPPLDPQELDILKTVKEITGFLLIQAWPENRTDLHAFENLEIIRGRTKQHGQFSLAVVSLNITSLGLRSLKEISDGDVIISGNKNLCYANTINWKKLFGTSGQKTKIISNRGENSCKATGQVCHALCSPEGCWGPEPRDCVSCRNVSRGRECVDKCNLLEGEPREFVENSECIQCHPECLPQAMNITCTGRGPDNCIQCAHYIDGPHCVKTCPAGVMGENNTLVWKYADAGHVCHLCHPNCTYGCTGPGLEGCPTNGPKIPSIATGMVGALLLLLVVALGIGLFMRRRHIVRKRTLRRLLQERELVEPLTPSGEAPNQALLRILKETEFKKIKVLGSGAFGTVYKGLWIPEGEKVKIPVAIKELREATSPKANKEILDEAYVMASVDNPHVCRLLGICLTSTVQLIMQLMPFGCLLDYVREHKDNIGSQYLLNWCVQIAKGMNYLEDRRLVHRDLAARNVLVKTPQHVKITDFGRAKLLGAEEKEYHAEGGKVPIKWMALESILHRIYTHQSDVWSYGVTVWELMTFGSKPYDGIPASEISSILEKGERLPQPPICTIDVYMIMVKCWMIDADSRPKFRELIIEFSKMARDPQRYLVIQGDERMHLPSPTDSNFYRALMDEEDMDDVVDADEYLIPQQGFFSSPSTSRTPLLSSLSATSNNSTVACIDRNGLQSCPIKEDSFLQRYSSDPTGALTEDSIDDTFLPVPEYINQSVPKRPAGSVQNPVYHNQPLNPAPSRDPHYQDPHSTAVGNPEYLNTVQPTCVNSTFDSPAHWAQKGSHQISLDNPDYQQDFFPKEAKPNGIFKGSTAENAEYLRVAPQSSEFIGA
Method in brief: as §2

[4] = tested on: BaF3 cells expressing wildtype EGFR; assay: Antiproliferative activity (MTT) against control BaF3 cells expressing wildtype EGFR; format: cell-based; conditions: Mus musculus
Method in brief: as §2

[5] = EGFR L858R/T790M double mutation
[6] = 10 pt curves, 3 μM top concentration

Row | Structure (SMILES) | IC50 ([1]; human EGFR native sequence) [nM] | IC50 (EGFR L858R; EGFR L858R) [nM] | IC50 (EGFR L858R/T790M; [5]) [nM] | GI50 [2] [nM] | GI50 [3] [nM] | IC50 [1, 6] [nM] | IC50 (EGFR L858R; [6]) [nM] | IC50 (EGFR L858R/T790M; [6]) [nM] | IC50 ([4]; BAF3 PARENTAL cells (control)) [nM] | IC50 ([4]; BAF3 parental cells) [nM]
1 | C=CC(=O)Nc1cc(Nc2ncc(Cl)c(Nc3ccccc3P(C)(C)=O)n2)c(OC)cc1N1CCC(N2CCN(C)CC2)C1 (stereo not drawn) [Example 37, N-(5-((5-chloro-4-((2-(dimethylphosphoryl)phenyl)amino)pyrimidin-2-yl)amino)-4-methoxy-2-(3-(4-methylpiperazin-1-yl)pyrrolidin-1-yl)phenyl)acrylamide] | < 50 | < 50 | < 50 | 50 to 100 | 101 to 250 | – | – | – | ≥ 250 | –
2 | C=CC(=O)Nc1cc(Nc2ncc(Cl)c(Nc3ccccc3S(=O)(=O)C(C)C)n2)c(OC)cc1C#CCN(C)C [Example 153, N-(5-((5-chloro-4-((2-(isopropylsulfonyl)phenyl)amino)pyrimidin-2-yl)amino)-2-(3-(dimethylamino)prop-1-yn-1-yl)-4-methoxyphenyl)acrylamide] | – | – | – | < 50 | < 50 | < 50 | < 50 | < 50 | – | ≥ 250
3 | C=CC(=O)Nc1cc(Nc2ncc(Cl)c(Nc3ccccc3P(C)(C)=O)n2)c(OC)cc1OCC1CCOCC1 [Example 6, N-(5-((5-chloro-4-((2-(dimethylphosphoryl)phenyl)amino)pyrimidin-2-yl)amino)-4-methoxy-2-((tetrahydro-2H-pyran-4-yl)methoxy)phenyl)acrylamide] | ≥ 250 | < 50 | 50 to 100 | 50 to 100 | 101 to 250 | – | – | – | ≥ 250 | –
4 | COc1cc(N2CCCC2)c(NC(=O)C#CCCN2CCN(C)CC2)cc1Nc1ncc(Cl)c(Nc2ccccc2P(C)(C)=O)n1 [Example 119, N-(5-((5-chloro-4-((2-(dimethylphosphoryl)phenyl)amino)pyrimidin-2-yl)amino)-4-methoxy-2-(pyrrolidin-1-yl)phenyl)-5-(4-methylpiperazin-1-yl)pent-2-ynamide] | – | – | – | 101 to 250 | 101 to 250 | < 50 | < 50 | < 50 | – | ≥ 250
5 | C=CC(=O)Nc1cc(Nc2ncc(Cl)c(Nc3ccccc3P(C)(C)=O)n2)c(OC)cc1C#CCN1CCCC1 [Example 157, N-(5-((5-chloro-4-((2-(dimethylphosphoryl)phenyl)amino)pyrimidin-2-yl)amino)-4-methoxy-2-(3-(pyrrolidin-1-yl)prop-1-yn-1-yl)phenyl)acrylamide] | – | – | – | < 50 | < 50 | < 50 | < 50 | < 50 | – | ≥ 250
6 | C=CC(=O)Nc1cc(Nc2ncc(Cl)c(Nc3ccccc3P(C)(C)=O)n2)c(OC)cc1OCC1CCN(C)CC1 [Example 3, N-(5-((5-chloro-4-((2-(dimethylphosphoryl)phenyl)amino)pyrimidin-2-yl)amino)-4-methoxy-2-((1-methylpiperidin-4-yl)methoxy)phenyl)acrylamide] | 50 to 100 | < 50 | < 50 | 101 to 250 | ≥ 250 | – | – | – | ≥ 250 | –
7 | C=CC(=O)Nc1cc(Nc2ncc(Cl)c(Nc3ccccc3P(C)(C)=O)n2)c(OC)cc1OC1CCCN(CCOC)C1 (stereo not drawn) [Example 123, N-(5-((5-chloro-4-((2-(dimethylphosphoryl)phenyl)amino)pyrimidin-2-yl)amino)-4-methoxy-2-((1-(2-methoxyethyl)piperidin-3-yl)oxy)phenyl)acrylamide] | – | – | – | < 50 | < 50 | < 50 | < 50 | < 50 | – | ≥ 250
8 | CC#CC(=O)Nc1cc(Nc2ncc(Cl)c(Nc3ccccc3P(C)(C)=O)n2)c(OC)cc1N1CCC(N2CCN(C)CC2)CC1 [Example 106, N-(5-((5-chloro-4-((2-(dimethylphosphoryl)phenyl)amino)pyrimidin-2-yl)amino)-4-methoxy-2-(4-(4-methylpiperazin-1-yl)piperidin-1-yl)phenyl)but-2-ynamide] | – | – | – | < 50 | < 50 | 50 to 100 | < 50 | < 50 | – | ≥ 250
9 | COCCC#CC(=O)Nc1cc(Nc2ncc(Cl)c(Nc3ccccc3P(C)(C)=O)n2)c(OC)cc1N1CCOCC1 [Example 115, N-(5-((5-chloro-4-((2-(dimethylphosphoryl)phenyl)amino)pyrimidin-2-yl)amino)-4-methoxy-2-morpholinophenyl)-5-methoxypent-2-ynamide] | – | – | – | < 50 | < 50 | < 50 | < 50 | < 50 | – | ≥ 250

Now from value to compound, other results behind:

Row | IC50 ([1]; human EGFR native sequence) [nM] | IC50 (EGFR L858R; EGFR L858R) [nM] | IC50 (EGFR L858R/T790M; [5]) [nM] | GI50 [2] [nM] | GI50 [3] [nM] | IC50 [1, 6] [nM] | IC50 (EGFR L858R; [6]) [nM] | IC50 (EGFR L858R/T790M; [6]) [nM] | Structure (SMILES) | IC50 ([4]; BAF3 PARENTAL cells (control)) [nM] | IC50 ([4]; BAF3 parental cells) [nM]
10 | < 50 | < 50 | < 50 | < 50 | < 50 | – | – | – | C=CC(=O)Nc1cc(Nc2ncc(Cl)c(Nc3ccccc3P(C)(C)=O)n2)c(OC)cc1C#CC(C)(C)N [Example 65, N-(2-(3-amino-3-methylbut-1-yn-1-yl)-5-((5-chloro-4-((2-(dimethylphosphoryl)phenyl)amino)pyrimidin-2-yl)amino)-4-methoxyphenyl)acrylamide] | ≥ 250 | –
11 | ≥ 250 | < 50 | < 50 | ≥ 250 | ≥ 250 | – | – | – | COc1ccc(NC(=O)C2=CCCN(C)C2)cc1Nc1ncc(Cl)c(Nc2ccccc2P(C)(C)=O)n1 [Example 84, N-(3-((5-chloro-4-((2-(dimethylphosphoryl)phenyl)amino)pyrimidin-2-yl)amino)-4-methoxyphenyl)-1-methyl-1,2,5,6-tetrahydropyridine-3-carboxamide] | ≥ 250 | –
12 | – | – | – | < 50 | < 50 | < 50 | < 50 | < 50 | C=CC(=O)Nc1ccc(OC)c(Nc2ncc(Cl)c(Nc3ccc(OCCN(C)C)cc3P(C)(C)=O)n2)c1 [Example 125, N-(3-((5-chloro-4-((4-(2-(dimethylamino)ethoxy)-2-(dimethylphosphoryl)phenyl)amino)pyrimidin-2-yl)amino)-4-methoxyphenyl)acrylamide] | – | ≥ 250
13 | < 50 | < 50 | < 50 | ≥ 250 | ≥ 250 | – | – | – | C=CC(=O)Nc1cc(Nc2ncc(Cl)c(Nc3ccccc3P(C)(C)=O)n2)c(OC)cc1N1CCC(N)C1 (stereo not drawn) [Example 57, N-(2-(3-aminopyrrolidin-1-yl)-5-((5-chloro-4-((2-(dimethylphosphoryl)phenyl)amino)pyrimidin-2-yl)amino)-4-methoxyphenyl)acrylamide] | ≥ 250 | –
14 | – | – | – | < 50 | < 50 | < 50 | < 50 | < 50 | COc1cc(C)c(NC(=O)CCl)cc1Nc1ncc(Cl)c(Nc2ccccc2P(C)(C)=O)n1 [Example 140, 2-chloro-N-(5-((5-chloro-4-((2-(dimethylphosphoryl)phenyl)amino)pyrimidin-2-yl)amino)-4-methoxy-2-methylphenyl)acetamide] | – | ≥ 250
15 | < 50 | < 50 | < 50 | < 50 | < 50 | – | – | – | C=CC(=O)Nc1cc(Nc2ncc(Cl)c(Nc3ccccc3P(C)(C)=O)n2)c(OC)cc1N1CC[C@@H](N(C)C)C1 (stereo in doubt) [Example 26, rac-(R)-N-(5-((5-chloro-4-((2-(dimethylphosphoryl)phenyl)amino)pyrimidin-2-yl)amino)-2-(3-(dimethylamino)pyrrolidin-1-yl)-4-methoxyphenyl)acrylamide] | ≥ 250 | –
16 | ≥ 250 | ≥ 250 | ≥ 250 | ≥ 250 | ≥ 250 | – | – | – | COc1ccc(NC(=O)/C=C\C(=O)N(C)C)cc1Nc1ncc(Cl)c(Nc2ccccc2P(C)(C)=O)n1 [Example 62, N1-(3-((5-chloro-4-((2-(dimethylphosphoryl)phenyl)amino)pyrimidin-2-yl)amino)-4-methoxyphenyl)-N4,N4-dimethylmaleamide] | ≥ 250 | –
17 | < 50 | < 50 | < 50 | < 50 | < 50 | – | – | – | COc1ccc(NC(=O)C#CCN(C)C)cc1Nc1ncc(Cl)c(Nc2ccccc2P(C)(C)=O)n1 [Example 81, N-(3-((5-chloro-4-((2-(dimethylphosphoryl)phenyl)amino)pyrimidin-2-yl)amino)-4-methoxyphenyl)-4-(dimethylamino)but-2-ynamide] | ≥ 250 | –
